Data published in patent US20020107414A1, “Method of prostaglandin synthesis” (priority 1993, published 2002).
Read-outs that look alike come from different tables or passages of the source.

Legend:
[1] = system: intraocular pressure (IOP); conditions: rabbits, cited from earlier work
[2] = system: intraocular pressure in human eyes; conditions: cited from earlier work
[3] = system: intraocular pressure (IOP); assay: IOP reduction in cynomolgus monkeys with ocular hypertension produced by laser trabeculoplasty; format: in vivo; conditions: for Percent IOP Reduction at Hours after Dose/Dose# 2/5: 2 hours after fifth dose; for Percent IOP Reduction at Hours after Dose/Dose# 4/5: 4 hours after fifth dose; for Percent IOP Reduction at Hours after Dose/Dose# 6/5: 6 hours after fifth dose; for Percent IOP Reduction at Hours after Dose/Dose# 16/4: 16 hours after fourth dose; for reduction of intraocular pressure (in words): at doses marginal or ineffective for other prostaglandins in published clinical studies
Procedure: The ability of certain compounds of the present invention to reduce intraocular pressure (IOP) was evaluated in cynomolgus monkeys with ocular hypertension produced by previous laser trabeculoplasty in the right eye. Animals had been trained to sit in restraint chairs and conditioned to accept experimental procedures without chemical restraint. IOP was determined with a pneumatonometer after light corneal anesthesia with dilute proparacaine. The test protocol included a treatment regimen consisting of 5 divided doses administered over a period of 2 and ½ days. Doses 2-5 were given 8, 24, 32 and 48 hours after the initial dose. Baseline IOP values were determined prior to treatment with the test formulation, and then IOP was determined 16 hours after the fourth dose, and 2, 4 and 6 hours after the fifth dose. Prostaglandin doses are micrograms of compound contained in each treatment. The two compounds tested are those previously identified as Compounds (II) and (IV).

SMILES: O=C(O)CCCCCCC1C(=O)NC(=O)N1CCC(O)C1CCCCC1 (stereo not shown) [BW245C]
- maximum IOP reduction ([1]; 25 μg): ~22%
- reduction of intraocular pressure in human eyes ([2]; 2.5 μg): 10%

SMILES: CC(C)(C)OC(=O)COC/C=C\C[C@@H]1[C@@H](CC[C@@H](O)C2CCCCC2)[C@H](O)C[C@H]1Cl [Compound (II), (5Z)-(9R, 11R, 15R)-9-Chloro-15-cyclohexyl-11,15-dihydroxy-3-oxa-16,17,18,19,20-pentanor-5-prostenoic Acid t-Butyl Ester]
- reduction of intraocular pressure ([3]; 5 μg of compound): ~50%
- Percent IOP Reduction at Hours after Dose/Dose# 2/5 ([3]; PG dose 1 μg per treatment): 30.8 ± 4.7%
- Percent IOP Reduction at Hours after Dose/Dose# 4/5 ([3]; PG dose 1 μg per treatment): 26.4 ± 4.7%
- Percent IOP Reduction at Hours after Dose/Dose# 6/5 ([3]; PG dose 1 μg per treatment): 24.9 ± 4.0%
- Percent IOP Reduction at Hours after Dose/Dose# 16/4 ([3]; PG dose 1 μg per treatment): 22.3 ± 2.7%
- Percent IOP Reduction at Hours after Dose/Dose# 2/5 ([3]; PG dose 5 μg per treatment): 47.5 ± 5.1%
- Percent IOP Reduction at Hours after Dose/Dose# 4/5 ([3]; PG dose 5 μg per treatment): 43.7 ± 5.6%
- Percent IOP Reduction at Hours after Dose/Dose# 6/5 ([3]; PG dose 5 μg per treatment): 36.5 ± 5.8%
- Percent IOP Reduction at Hours after Dose/Dose# 16/4 ([3]; PG dose 5 μg per treatment, lasered right eye, topical): 38.3 ± 3.0%
- reduction of intraocular pressure (in words) [3]: significant reduction

SMILES: CC(C)OC(=O)CCC/C=C\C[C@@H]1[C@@H](CC[C@@H](O)C2CCCCC2)[C@H](O)C[C@H]1Cl [Compound (IV), (5Z)-(9R, 11R, 15R)-9-Chloro-15-cyclohexyl-11,15-dihydroxy-16,17,18,19,20-pentanor-5-prostenoic Acid Isopropyl Ester]
- Percent IOP Reduction at Hours after Dose/Dose# 2/5 ([3]; PG dose 20 μg per treatment): 30.1 ± 4.8%
- Percent IOP Reduction at Hours after Dose/Dose# 4/5 ([3]; PG dose 20 μg per treatment): 22.4 ± 5.2%
- Percent IOP Reduction at Hours after Dose/Dose# 6/5 ([3]; PG dose 20 μg per treatment): 19.3 ± 4.3%
- Percent IOP Reduction at Hours after Dose/Dose# 16/4 ([3]; PG dose 20 μg per treatment): 13.9 ± 2.7%
- reduction of intraocular pressure (in words) [3]: significant reduction

SMILES: CCCCC[C@H](O)/C=C/[C@H]1C(=O)C[C@H](O)[C@@H]1C/C=C\CCCC(=O)O [PGD2]
- maximum IOP reduction ([1]; 250 μg): approximately 28%
- reduction of intraocular pressure in human eyes ([2]; 50 μg): 12%
